According to the kinase profiling compilation of Christmann-Franck et al. (2016):

Key:
Experiment in all cases: radiometric filter-binding kinase assay, Kinase HotSpot
Details in all cases: compound 0.5 µM; ATP 10 µM
[1] = target: CHEK2 (human) (UniProt O96017)
[2] = target: PAK7 (human) (UniProt Q9P286)
[3] = target: AURKC (human) (UniProt Q9UQB9)
[4] = target: PRKACG (human) (UniProt P22612)
[5] = target: ABL1 (human) (UniProt P00519)
[6] = target: EGFR (human) (UniProt P00533)
[7] = target: CDK6 CCND1 (human) (UniProt Q00534+P24385)
[8] = target: PDGFRB (human) (UniProt P09619)
[9] = target: EPHA6 (human) (UniProt Q9UF33)
[10] = target: GRK7 (human) (UniProt Q8WTQ7)
[11] = target: OXSR1 (human) (UniProt O95747)
[12] = target: AKT3 (human) (UniProt Q9Y243)
[13] = target: STK10 (human) (UniProt O94804)
[14] = target: WNK3 (human) (UniProt Q9BYP7)
[15] = target: HIPK3 (human) (UniProt Q9H422)
[16] = target: MYO3B (human) (UniProt Q8WXR4)
[17] = target: PAK6 (human) (UniProt Q9NQU5)
[18] = target: ULK3 (human) (UniProt Q6PHR2)
[19] = target: MYLK (human) (UniProt Q15746)
[20] = target: EPHA2 (human) (UniProt P29317)
[21] = target: MKNK2 (human) (UniProt Q9HBH9)
[22] = target: DYRK3 (human) (UniProt O43781)
[23] = target: STK38 (human) (UniProt Q15208)
[24] = target: PIM1 (human) (UniProt P11309)
[25] = target: CDK6 CCND3 (human) (UniProt P30281+Q00534)
[26] = target: KDR (human) (UniProt P35968)
[27] = target: SGK3 (human) (UniProt Q96BR1)
[28] = target: DYRK1A (human) (UniProt Q13627)
[29] = target: VRK1 (human) (UniProt Q99986)
[30] = target: TEK (human) (UniProt Q02763)
[31] = target: NTRK1 (human) (UniProt P04629)
[32] = target: STK25 (human) (UniProt O00506)
[33] = target: PIM2 (human) (UniProt Q9P1W9)
[34] = target: TLK2 (human) (UniProt Q86UE8)
[35] = target: AURKA (human) (UniProt O14965)
[36] = target: CAMK1G (human) (UniProt Q96NX5)
[37] = target: MELK (human) (UniProt Q14680)
[38] = target: CLK2 (human) (UniProt P49760)
[39] = target: CSNK2A2 (human) (UniProt P19784)
[40] = target: BRAF (human) (UniProt P15056)
[41] = system: ARAF (human), P10398 [Y301D/Y302D]

Chain of CDK6 CCND3 (human) (P30281 whole entry, looked up): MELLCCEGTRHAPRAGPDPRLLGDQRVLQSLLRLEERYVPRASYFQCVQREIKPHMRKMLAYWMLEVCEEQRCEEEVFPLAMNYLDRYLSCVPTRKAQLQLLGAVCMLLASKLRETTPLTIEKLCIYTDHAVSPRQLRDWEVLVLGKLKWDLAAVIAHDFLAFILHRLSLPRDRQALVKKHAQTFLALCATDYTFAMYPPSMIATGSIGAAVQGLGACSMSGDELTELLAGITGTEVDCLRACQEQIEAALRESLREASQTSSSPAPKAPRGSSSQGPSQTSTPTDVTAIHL
Chain of CDK6 CCND3 (human) (Q00534 whole entry, looked up): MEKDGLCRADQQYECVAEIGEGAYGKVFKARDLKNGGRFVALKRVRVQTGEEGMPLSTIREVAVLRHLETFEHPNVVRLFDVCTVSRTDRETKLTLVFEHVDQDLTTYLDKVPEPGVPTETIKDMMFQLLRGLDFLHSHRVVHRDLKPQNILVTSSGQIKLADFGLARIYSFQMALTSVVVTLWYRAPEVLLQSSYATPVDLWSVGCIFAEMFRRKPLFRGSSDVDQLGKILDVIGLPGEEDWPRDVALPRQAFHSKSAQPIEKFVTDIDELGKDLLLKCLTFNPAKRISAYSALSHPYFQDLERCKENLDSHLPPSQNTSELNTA
Chain of AURKA (human) (O14965 whole entry, looked up): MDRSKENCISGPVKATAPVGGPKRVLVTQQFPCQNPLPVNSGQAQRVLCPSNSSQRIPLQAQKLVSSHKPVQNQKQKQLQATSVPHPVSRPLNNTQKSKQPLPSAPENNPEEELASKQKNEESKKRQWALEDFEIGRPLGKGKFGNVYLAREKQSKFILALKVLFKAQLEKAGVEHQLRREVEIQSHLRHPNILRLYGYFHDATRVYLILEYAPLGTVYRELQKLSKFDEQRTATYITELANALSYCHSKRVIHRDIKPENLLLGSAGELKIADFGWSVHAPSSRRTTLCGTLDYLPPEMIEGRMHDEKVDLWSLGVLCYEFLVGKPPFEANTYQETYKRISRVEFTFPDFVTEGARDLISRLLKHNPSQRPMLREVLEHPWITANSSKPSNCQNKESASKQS
Chain of ABL1 (human) (P00519 whole entry, looked up): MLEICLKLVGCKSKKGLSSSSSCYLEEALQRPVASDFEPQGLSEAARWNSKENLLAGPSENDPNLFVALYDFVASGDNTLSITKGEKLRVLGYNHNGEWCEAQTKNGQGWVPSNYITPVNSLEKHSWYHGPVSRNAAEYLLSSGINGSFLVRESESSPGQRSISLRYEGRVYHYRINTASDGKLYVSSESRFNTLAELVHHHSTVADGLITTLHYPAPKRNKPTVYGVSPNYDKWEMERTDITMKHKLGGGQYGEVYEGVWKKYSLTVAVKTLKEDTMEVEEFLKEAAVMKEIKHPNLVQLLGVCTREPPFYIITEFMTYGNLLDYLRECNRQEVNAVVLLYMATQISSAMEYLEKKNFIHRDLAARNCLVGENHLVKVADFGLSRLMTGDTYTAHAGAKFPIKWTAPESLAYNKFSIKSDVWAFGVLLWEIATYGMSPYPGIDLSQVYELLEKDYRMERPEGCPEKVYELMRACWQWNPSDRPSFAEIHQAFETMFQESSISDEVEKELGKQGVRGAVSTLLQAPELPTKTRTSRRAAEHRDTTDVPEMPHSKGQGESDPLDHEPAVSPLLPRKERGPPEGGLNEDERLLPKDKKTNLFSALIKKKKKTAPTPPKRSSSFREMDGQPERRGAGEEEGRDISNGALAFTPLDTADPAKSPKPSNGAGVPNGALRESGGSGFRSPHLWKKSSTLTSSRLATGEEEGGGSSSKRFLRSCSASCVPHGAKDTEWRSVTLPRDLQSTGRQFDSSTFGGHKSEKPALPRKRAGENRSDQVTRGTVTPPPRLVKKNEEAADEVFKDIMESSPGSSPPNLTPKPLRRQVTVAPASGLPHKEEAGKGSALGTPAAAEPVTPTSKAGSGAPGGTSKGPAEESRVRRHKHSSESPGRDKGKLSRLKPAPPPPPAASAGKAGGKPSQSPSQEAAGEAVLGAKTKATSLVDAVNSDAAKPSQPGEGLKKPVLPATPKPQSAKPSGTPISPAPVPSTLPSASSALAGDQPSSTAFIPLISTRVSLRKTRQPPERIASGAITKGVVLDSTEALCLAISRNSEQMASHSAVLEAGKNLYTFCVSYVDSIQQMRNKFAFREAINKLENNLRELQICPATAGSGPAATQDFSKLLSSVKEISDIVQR
Chain of PIM1 (human) (P11309 whole entry, looked up): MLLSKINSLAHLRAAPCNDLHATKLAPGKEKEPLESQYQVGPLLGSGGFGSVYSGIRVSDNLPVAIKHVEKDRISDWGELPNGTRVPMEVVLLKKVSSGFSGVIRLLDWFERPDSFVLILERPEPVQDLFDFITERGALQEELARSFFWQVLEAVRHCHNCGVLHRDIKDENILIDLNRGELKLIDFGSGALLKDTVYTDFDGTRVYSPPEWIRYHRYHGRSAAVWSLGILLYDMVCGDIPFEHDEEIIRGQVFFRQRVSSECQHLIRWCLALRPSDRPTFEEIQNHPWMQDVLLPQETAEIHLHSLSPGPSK
Chain of ULK3 (human) (Q6PHR2 whole entry, looked up): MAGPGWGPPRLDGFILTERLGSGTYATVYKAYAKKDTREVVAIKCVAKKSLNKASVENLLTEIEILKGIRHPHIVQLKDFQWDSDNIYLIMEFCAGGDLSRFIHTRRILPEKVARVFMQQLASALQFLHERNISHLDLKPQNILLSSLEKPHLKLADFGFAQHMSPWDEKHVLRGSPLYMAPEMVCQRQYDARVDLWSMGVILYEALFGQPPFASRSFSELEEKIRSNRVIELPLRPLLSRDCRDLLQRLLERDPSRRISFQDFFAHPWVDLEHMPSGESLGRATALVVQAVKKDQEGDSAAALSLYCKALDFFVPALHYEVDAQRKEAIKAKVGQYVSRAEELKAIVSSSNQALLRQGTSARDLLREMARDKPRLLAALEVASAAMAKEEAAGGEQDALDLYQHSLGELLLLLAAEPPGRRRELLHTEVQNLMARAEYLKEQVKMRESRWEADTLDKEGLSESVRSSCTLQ
Chain of HIPK3 (human) (Q9H422 whole entry, looked up): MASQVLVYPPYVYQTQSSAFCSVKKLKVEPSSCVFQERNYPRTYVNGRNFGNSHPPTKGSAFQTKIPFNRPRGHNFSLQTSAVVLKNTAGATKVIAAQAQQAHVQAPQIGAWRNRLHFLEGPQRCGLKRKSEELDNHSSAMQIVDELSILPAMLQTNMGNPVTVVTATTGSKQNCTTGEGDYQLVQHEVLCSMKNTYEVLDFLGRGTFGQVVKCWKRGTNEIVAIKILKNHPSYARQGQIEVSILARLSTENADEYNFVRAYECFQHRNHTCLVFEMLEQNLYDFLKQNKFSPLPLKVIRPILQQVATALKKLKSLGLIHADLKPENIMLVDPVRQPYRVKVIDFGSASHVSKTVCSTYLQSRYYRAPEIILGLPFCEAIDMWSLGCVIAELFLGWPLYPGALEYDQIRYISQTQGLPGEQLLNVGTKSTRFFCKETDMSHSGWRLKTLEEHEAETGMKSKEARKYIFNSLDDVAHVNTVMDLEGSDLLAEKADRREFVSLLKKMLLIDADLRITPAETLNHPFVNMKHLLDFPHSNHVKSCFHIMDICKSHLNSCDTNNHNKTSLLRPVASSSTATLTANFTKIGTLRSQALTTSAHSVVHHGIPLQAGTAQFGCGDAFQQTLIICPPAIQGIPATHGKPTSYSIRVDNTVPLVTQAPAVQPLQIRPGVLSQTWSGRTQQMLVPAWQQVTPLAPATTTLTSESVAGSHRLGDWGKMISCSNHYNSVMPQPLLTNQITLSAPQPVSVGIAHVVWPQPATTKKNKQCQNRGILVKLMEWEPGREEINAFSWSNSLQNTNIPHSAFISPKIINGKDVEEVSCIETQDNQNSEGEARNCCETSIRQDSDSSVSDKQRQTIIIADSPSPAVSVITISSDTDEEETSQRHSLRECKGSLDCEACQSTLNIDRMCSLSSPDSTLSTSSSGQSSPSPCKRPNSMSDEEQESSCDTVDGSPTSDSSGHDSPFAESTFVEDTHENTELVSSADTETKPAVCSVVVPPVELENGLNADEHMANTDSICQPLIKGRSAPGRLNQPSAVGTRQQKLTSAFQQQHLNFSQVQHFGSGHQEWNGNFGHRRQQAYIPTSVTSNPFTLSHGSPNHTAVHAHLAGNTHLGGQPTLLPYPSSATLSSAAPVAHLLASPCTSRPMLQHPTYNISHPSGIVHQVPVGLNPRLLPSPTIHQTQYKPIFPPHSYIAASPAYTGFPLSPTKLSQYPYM
Chain of TLK2 (human) (Q86UE8 whole entry, looked up): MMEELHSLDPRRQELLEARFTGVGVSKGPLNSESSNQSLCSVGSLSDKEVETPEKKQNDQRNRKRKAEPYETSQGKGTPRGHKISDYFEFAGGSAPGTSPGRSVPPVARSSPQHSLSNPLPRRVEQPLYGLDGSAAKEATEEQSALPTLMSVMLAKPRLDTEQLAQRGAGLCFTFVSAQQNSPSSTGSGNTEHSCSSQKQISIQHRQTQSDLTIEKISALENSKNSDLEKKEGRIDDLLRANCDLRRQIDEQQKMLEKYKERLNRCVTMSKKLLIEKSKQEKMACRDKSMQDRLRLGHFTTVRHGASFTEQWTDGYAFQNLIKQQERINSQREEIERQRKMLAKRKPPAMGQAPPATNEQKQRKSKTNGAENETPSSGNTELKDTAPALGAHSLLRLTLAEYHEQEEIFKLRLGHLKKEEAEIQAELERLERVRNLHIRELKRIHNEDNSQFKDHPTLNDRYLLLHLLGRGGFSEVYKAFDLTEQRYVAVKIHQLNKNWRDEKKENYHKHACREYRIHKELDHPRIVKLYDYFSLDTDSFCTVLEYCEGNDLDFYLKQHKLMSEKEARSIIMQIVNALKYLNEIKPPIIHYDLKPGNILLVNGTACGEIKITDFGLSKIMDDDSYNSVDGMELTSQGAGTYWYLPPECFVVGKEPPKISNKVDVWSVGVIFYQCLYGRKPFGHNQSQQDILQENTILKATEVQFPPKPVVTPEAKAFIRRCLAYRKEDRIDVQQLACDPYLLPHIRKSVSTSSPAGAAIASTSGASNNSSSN

## O=c1cc(N2CCNCC2)oc2c(-c3ccccc3)cccc12
[1]
  residual activity: 96.6%
[2]
  residual activity: 104%
[3]
  residual activity: 97.6%
[4]
  residual activity: 83.2%
[5]
  residual activity: 110%
[6]
  residual activity: 110%
[7]
  residual activity: 94.6%
[8]
  residual activity: 101%
[9]
  residual activity: 88.2%
[10]
  residual activity: 114%
[11]
  residual activity: 85.6%
[12]
  residual activity: 102%
[13]
  residual activity: 94.3%
[14]
  residual activity: 93.4%
[15]
  residual activity: 116%
[16]
  residual activity: 97.5%
[17]
  residual activity: 102%
[18]
  residual activity: 101%
[19]
  residual activity: 105%
[20]
  residual activity: 108%
[21]
  residual activity: 107%
[22]
  residual activity: 97.8%
[23]
  residual activity: 94.3%
[24]
  residual activity: 92.4%
[25]
  residual activity: 93.8%
[26]
  residual activity: 99.8%
[27]
  residual activity: 111%
[28]
  residual activity: 96.8%
[29]
  residual activity: 92.1%
[30]
  residual activity: 95%
[31]
  residual activity: 96.4%
[32]
  residual activity: 116%
[33]
  residual activity: 121%
[34]
  residual activity: 94.8%
[35]
  residual activity: 105%
[36]
  residual activity: 94.7%
[37]
  residual activity: 94.5%
[38]
  residual activity: 100%

## Nc1n[nH]c2nnc(-c3c(-c4ccccc4)nn4ccccc34)cc12
[1]
  residual activity: 97%
[2]
  residual activity: 98.2%
[3]
  residual activity: 96.4%
[5]
  residual activity: 83.3%
[6]
  residual activity: 83.9%
[7]
  residual activity: 100%
[8]
  residual activity: 114%
[39]
  residual activity: 93.4%
[10]
  residual activity: 96.7%
[11]
  residual activity: 102%
[12]
  residual activity: 97.5%
[13]
  residual activity: 70.9%
[14]
  residual activity: 101%
[15]
  residual activity: 95.3%
[17]
  residual activity: 96.4%
[19]
  residual activity: 98.3%
[20]
  residual activity: 98.3%
[21]
  residual activity: 98.3%
[22]
  residual activity: 99.8%
[24]
  residual activity: 100%
[25]
  residual activity: 90.4%
[26]
  residual activity: 101%
[27]
  residual activity: 90.2%
[40]
  residual activity: 95.7%
[28]
  residual activity: 102%
[29]
  residual activity: 92.2%
[41]
  residual activity: 98.4%
[30]
  residual activity: 96.6%
[31]
  residual activity: 101%
[32]
  residual activity: 84.2%
[33]
  residual activity: 91.7%
[35]
  residual activity: 101%
[36]
  residual activity: 99.2%
[37]
  residual activity: 102%
[38]
  residual activity: 94.9%

## CCN1/C(=C/C(C)=O)Sc2ccc(OC)cc21
[1]
  residual activity: 104%
[2]
  residual activity: 84.7%
[3]
  residual activity: 94.8%
[5]
  residual activity: 92.9%
[6]
  residual activity: 99.1%
[7]
  residual activity: 108%
[8]
  residual activity: 107%
[39]
  residual activity: 89.7%
[10]
  residual activity: 104%
[11]
  residual activity: 93.5%
[12]
  residual activity: 96.1%
[13]
  residual activity: 96.8%
[14]
  residual activity: 88.1%
[15]
  residual activity: 100%
[17]
  residual activity: 95.6%
[19]
  residual activity: 93.7%
[20]
  residual activity: 99.1%
[21]
  residual activity: 93.8%
[22]
  residual activity: 50.4%
[24]
  residual activity: 17.9%
[25]
  residual activity: 104%
[26]
  residual activity: 104%
[27]
  residual activity: 93.4%
[40]
  residual activity: 95.3%
[28]
  residual activity: 28.9%
[29]
  residual activity: 98.2%
[41]
  residual activity: 128%
[30]
  residual activity: 102%
[31]
  residual activity: 85.7%
[32]
  residual activity: 98%
[33]
  residual activity: 102%
[35]
  residual activity: 108%
[36]
  residual activity: 101%
[37]
  residual activity: 94.6%
[38]
  residual activity: 25.9%

## CCCNC(=O)Nc1ccc(Oc2ncnc3cc(OC)c(OC)cc23)cc1Cl
[1]
  residual activity: 80%
[2]
  residual activity: 84.5%
[3]
  residual activity: 71.6%
[4]
  residual activity: 106%
[5]
  residual activity: 89%
[6]
  residual activity: 88.1%
[7]
  residual activity: 92.9%
[9]
  residual activity: 77.7%
[10]
  residual activity: 94.7%
[11]
  residual activity: 96.5%
[12]
  residual activity: 88.9%
[13]
  residual activity: 35%
[14]
  residual activity: 93.8%
[15]
  residual activity: 96.2%
[16]
  residual activity: 76.2%
[17]
  residual activity: 106%
[18]
  residual activity: 80.7%
[19]
  residual activity: 97.4%
[20]
  residual activity: 104%
[21]
  residual activity: 81.3%
[22]
  residual activity: 99.7%
[23]
  residual activity: 87.9%
[24]
  residual activity: 102%
[25]
  residual activity: 89.5%
[26]
  residual activity: 19.7%
[27]
  residual activity: 95.5%
[28]
  residual activity: 96.9%
[29]
  residual activity: 104%
[30]
  residual activity: 87%
[31]
  residual activity: 93.2%
[32]
  residual activity: 92.6%
[33]
  residual activity: 101%
[34]
  residual activity: 99.5%
[35]
  residual activity: 89.2%
[36]
  residual activity: 103%
[37]
  residual activity: 86.8%
[38]
  residual activity: 89.5%

## C#Cc1cccc(Nc2ncnc3cc(OCCOC)c(OCCOC)cc23)c1
[1]
  residual activity: 100%
[2]
  residual activity: 97.3%
[4]
  residual activity: 108%
[7]
  residual activity: 98.7%
[9]
  residual activity: 40.4%
[10]
  residual activity: 98.3%
[11]
  residual activity: 102%
[12]
  residual activity: 74.6%
[13]
  residual activity: 20.3%
[14]
  residual activity: 101%
[15]
  residual activity: 102%
[16]
  residual activity: 84.4%
[17]
  residual activity: 104%
[18]
  residual activity: 105%
[20]
  residual activity: 91.3%
[22]
  residual activity: 83.5%
[23]
  residual activity: 101%
[24]
  residual activity: 97%
[25]
  residual activity: 117%
[27]
  residual activity: 100%
[29]
  residual activity: 103%
[30]
  residual activity: 94%
[31]
  residual activity: 102%
[32]
  residual activity: 99.4%
[33]
  residual activity: 97.9%
[34]
  residual activity: 85.9%
[35]
  residual activity: 75.3%
[36]
  residual activity: 111%
[37]
  residual activity: 88.6%
[38]
  residual activity: 93.4%
